The NIST ThermoML archive (doi:10.1021/acs.jced.8b00372)

Test: mn = molality of the nth substance listed, in mol/kg
Details: for electrical conductivity: 100 kPa, Liquid, Frequency=0.002 MHz, Alternating current cell with electrodes; for surface tension liquid-gas: Ring tensiometer

CCCCCCCCCCCC[N+](C)(C)C.[Br-] [dodecyltrimethylammonium bromide] + O
Details | electrical conductivity, 303.15 K [S/m] | electrical conductivity, 313.15 K [S/m] | electrical conductivity, 323.15 K [S/m] | surface tension liquid-gas, 313.15 K [mN/m]
m1 = 6e-06 | – | – | – | 65.2
m1 = 2.5e-05 | – | – | – | 63.6
m1 = 5.6e-05 | – | – | – | 62.5
m1 = 0.000135 | – | – | – | 61.3
m1 = 0.000263 | – | – | – | 58.3
m1 = 0.000739 | – | – | – | 54.7
m1 = 0.001308 | – | – | – | 51.3
m1 = 0.00178 | 0.0194 | 0.0234 | 0.0282 | –
m1 = 0.00353 | 0.0374 | 0.0467 | 0.0547 | –
m1 = 0.004064 | – | – | – | 46
m1 = 0.00524 | 0.0553 | 0.0668 | 0.0802 | –
m1 = 0.006048 | – | – | – | 43.3
m1 = 0.00692 | 0.0727 | 0.0871 | 0.105 | –
m1 = 0.008433 | – | – | – | 39.5
m1 = 0.00857 | 0.0893 | 0.107 | 0.128 | –
m1 = 0.01019 | 0.106 | 0.126 | 0.152 | –
m1 = 0.01178 | 0.121 | 0.145 | 0.174 | –
m1 = 0.01333 | 0.136 | 0.163 | 0.196 | –
m1 = 0.01486 | 0.149 | 0.18 | 0.216 | –
m1 = 0.01636 | 0.157 | 0.193 | 0.234 | –
m1 = 0.01784 | 0.162 | 0.201 | – | –
m1 = 0.01789 | – | – | 0.247 | –
m1 = 0.01929 | 0.166 | 0.208 | 0.258 | –
m1 = 0.01941 | – | – | – | 36.2
m1 = 0.02071 | 0.17 | 0.213 | 0.265 | –
m1 = 0.02211 | 0.174 | 0.219 | 0.272 | –
m1 = 0.02348 | 0.178 | 0.224 | 0.279 | –
m1 = 0.02483 | 0.181 | 0.229 | 0.285 | –
m1 = 0.02615 | 0.185 | 0.234 | 0.292 | –
m1 = 0.02746 | 0.189 | 0.238 | 0.297 | –
m1 = 0.02874 | 0.192 | 0.243 | 0.304 | –
m1 = 0.03 | 0.195 | 0.247 | 0.31 | –
m1 = 0.0309 | – | – | – | 37.9
m1 = 0.0456 | – | – | – | 38.3
m1 = 0.07211 | – | – | – | 38.8
m1 = 0.1062 | – | – | – | 38.9
